Reference: patent US8877814B2, “Titration package for neramexane and its use in the treatment of an inner ear disorder” (Merz Pharma GmbH & Co. KGaA, priority 2007, dated 2014)

Legend:
[1] = system: patients afflicted with various degrees of hearing loss; assay: Double blind placebo controlled pilot trial of neramexane for treatment of hearing loss; format: in vivo, human; conditions: neramexane mesylate up to 75 mg/d, compared to the placebo group
Experimental: A hearing threshold level may be defined as the average of the pure tone hearing threshold levels at testing frequencies of 0.25, 0.5, 1, 2 and 4 kHz.
The primary objective of this study is to investigate the safety and efficacy of neramexane mesylate at daily doses of up to 75 mg in the treatment of hearing loss in comparison to placebo.
Neramexane mesylate (or placebo) is uptitrated to a maximum daily dose of 75 mg, starting with a daily dose of 25 mg for one week, and increasing dosage in 25 mg steps at weekly intervals.
Treatment is started in the evening of study day 1. The daily starting dose is 25 mg neramexane mesylate per dose to be taken for 7 days at bedtime. […]
Primary Outcome • Change from baseline in hearing threshold level of left/right ear (dB) calculated as average of the pure tone hearing level threshold levels at 0.25, 0.5, 1, 2 and 4 kHz.
Secondary Outcomes • Change from baseline in high frequency hearing threshold of left/right ear (dB) calculated as average of the pure tone hearing threshold levels at 4, 6, 8 and 10 kHz • Change from baseline in individual frequencies (hearing thresholds) on a pure tone audiogram (air conduction) • Number of Responder • Patient-reported outcome on a 11-point Likert-Scale (0=hearing is not a problem, 10=hearing is a problem as much as possible) • Change in hearing impairment based on the hearing threshold level: […]

[2] = system: subjects with subjective tinnitus of at least moderate severity; assay: Double blind placebo controlled pilot trial of neramexane for tinnitus: treatment emergent adverse events leading to drop-out
Experimental: The primary objective of this study was to compare the efficacy, tolerability and safety of neramexane mesylate at three different dosages (25, 50 or 75 mg/d) with placebo in subjects with subjective tinnitus of at least moderate severity.
In a double-blind, multicenter, randomized, placebo-controlled, parallel-group study, the efficacy of neramexane in subjects suffering from tinnitus of at least moderate severity was assessed. Approximately 100 patients, who fulfilled particular inclusion criteria and met none of particular exclusion criteria, were randomized to each of four double-blind treatment groups (neramexane mesylate 25, 50, 75 mg/d or placebo), resulting in approximately 400 patients in total.
The double-blind, 16-week treatment period consisted of a 4-week uptitration period and a 12-week fixed-dose treatment period at unchanged maintenance b.i.d. dosing. In case of poor tolerability, however, the investigator could consider a dose reduction by 25 mg/d (or placebo, respectively). […] In total, this study involved seven study visits: screening, baseline, and at the end of weeks 4, 8, 12, 16, and 20. (Participants received either neramexane mesylate (e.g. 50 mg, as 25 mg immediate release tablets given twice daily) or placebo twice daily for 16 weeks. Neramexane mesylate was uptitrated in weekly steps of 12.5 or 25 mg during a 4-week uptitration period preceding the fixed-dose 12-week treatment period. Treatment was followed by a four week follow-up period.)
Neramexane mesylate immediate release tablets (12.5 mg and 25 mg) and matching placebo tablets were administered as film coated tablets.
Study medication was dispensed at Visit 2 (baseline, day 0). Each patient received one blister box containing 5 blister cards (including one reserve blister) of double-blind study medication (i.e., 32 tablets). Subjects were instructed to take 2 tablets twice daily (4 tablets/d), beginning the day after dispensing of the study medication, until they returned for their next study visit (Visit 3). For those subjects assigned to receive active medication, some placebo tablets were incorporated into the dosing regimen to ensure blinding during the uptitration period. The target fixed-maintenance dose of 25, 50, or 75 mg/d was administered starting with the fifth week of double-blind treatment and was continued throughout the study. At each of the subsequent visits (Visits 3, 4, and 5, corresponding to end of week 4, 8 and 12) patients received another blister box containing 5 blister cards for the 4 week intervals, with double-blind medication for the intervening treatment period until the next study visit.
In case of poor tolerability the investigator could consider a dose reduction of 25 mg/d by omitting the bigger tablet in the morning which constituted an effective dose reduction only in the 75 mg/d and 50 mg/d neramexane mesylate groups. After omitting the bigger tablet (25 mg or placebo, respectively) of the morning dose, these patients could then continue the course of the study as scheduled, while receiving only one smaller tablet as the morning dose (12.5 mg or placebo, respectively) and 2 tablets of different sizes (12.5 mg, 25 mg or placebo, respectively) as the evening dose. The dose was to be kept stable until the end of the study.

[3] = system: 5-HT3 receptors; conditions: cited from earlier work
[4] = target: α 9/α 10 nicotinic (Rattus norvegicus, UniProt P43144+Q9JLB5); conditions: Plazas et al., Eur J. Pharmacol. 2007; cited from earlier work
Sequence of α 9/α 10 nicotinic (P43144 26-479): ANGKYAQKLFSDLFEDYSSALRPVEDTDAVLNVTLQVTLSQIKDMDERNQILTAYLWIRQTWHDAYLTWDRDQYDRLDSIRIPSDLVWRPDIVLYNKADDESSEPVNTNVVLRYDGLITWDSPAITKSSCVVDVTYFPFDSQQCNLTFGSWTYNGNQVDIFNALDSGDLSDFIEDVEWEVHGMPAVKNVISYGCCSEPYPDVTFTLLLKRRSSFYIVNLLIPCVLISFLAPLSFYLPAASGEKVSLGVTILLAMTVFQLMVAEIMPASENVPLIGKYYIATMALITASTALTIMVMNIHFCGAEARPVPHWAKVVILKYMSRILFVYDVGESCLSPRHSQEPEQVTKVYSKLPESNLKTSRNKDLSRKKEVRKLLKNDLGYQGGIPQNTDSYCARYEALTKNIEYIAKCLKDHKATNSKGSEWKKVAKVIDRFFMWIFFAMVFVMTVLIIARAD
Sequence of α 9/α 10 nicotinic (Q9JLB5 25-447): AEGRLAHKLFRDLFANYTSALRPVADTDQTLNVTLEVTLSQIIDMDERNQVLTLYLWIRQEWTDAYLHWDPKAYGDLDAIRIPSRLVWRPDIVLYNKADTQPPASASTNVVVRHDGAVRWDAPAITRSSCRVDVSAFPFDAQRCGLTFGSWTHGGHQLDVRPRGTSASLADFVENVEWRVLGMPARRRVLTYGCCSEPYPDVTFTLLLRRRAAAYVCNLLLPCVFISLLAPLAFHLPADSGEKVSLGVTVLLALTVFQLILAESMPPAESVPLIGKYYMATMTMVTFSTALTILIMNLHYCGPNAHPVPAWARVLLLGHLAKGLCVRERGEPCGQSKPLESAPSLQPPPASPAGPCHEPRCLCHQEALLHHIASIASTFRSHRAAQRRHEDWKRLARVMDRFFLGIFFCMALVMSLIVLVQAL

With `CC1(C)CC(C)(C)CC(C)(N)C1` [Neramexane, 1-amino-1,3,3,5,5-pentamethylcyclohexane] the “Primary outcome: change from baseline in hearing threshold level” value [1] was “improvement”, the “Secondary outcomes (e.g. change from baseline in different frequencies on a pure tone audiogram)” value [1] was “improvement” and the “Any adverse event leading to drop-out, % of patients” value ([2]; 25 mg/d, N = 108, EFS) was “(8.3) %”. The “Any adverse event leading to drop-out, n (number of patients)” value (shortened to “Any adverse event leading to drop-out, n”) ([2]; 25 mg/d, N = 108, EFS) was 9, the “Cardiovascular disorder leading to drop-out, % of patients” value ([2]; 25 mg/d, N = 108, EFS) was “(0.0) %” and the “Cardiovascular disorder leading to drop-out, n (number of patients)” value ([2]; 25 mg/d, N = 108, EFS) was 0. For the same compound, the “Depression leading to drop-out, % of patients” value ([2]; 25 mg/d, N = 108, EFS) was “(0.9) %”, the “Depression leading to drop-out, n (number of patients)” value (“Depression leading to drop-out, n” below) ([2]; 25 mg/d, N = 108, EFS) was 1 and the “Dizziness leading to drop-out, % of patients” value ([2]; 25 mg/d, N = 108, EFS) was “(1.9) %”. For the same compound, the “Dizziness leading to drop-out, n (number of patients)” value (shortened to “Dizziness leading to drop-out, n”) ([2]; 25 mg/d, N = 108, EFS) was 2, the “Fatigue leading to drop-out, % of patients” value ([2]; 25 mg/d, N = 108, EFS) was “(0.0) %” and the “Fatigue leading to drop-out, n (number of patients)” value (“Fatigue leading to drop-out, n” below) ([2]; 25 mg/d, N = 108, EFS) was 0. For the same compound, the “Headache leading to drop-out, % of patients” value ([2]; 25 mg/d, N = 108, EFS) was “(0.0) %”, the “Headache leading to drop-out, n (number of patients)” value (“Headache leading to drop-out, n” below) ([2]; 25 mg/d, N = 108, EFS) was 0 and the “Hyperhidrosis leading to drop-out, % of patients” value ([2]; 25 mg/d, N = 108, EFS) was “(0.0) %”. The “Hyperhidrosis leading to drop-out, n (number of patients)” value (“Hyperhidrosis leading to drop-out, n” for short) ([2]; 25 mg/d, N = 108, EFS) was 0, the “Nausea leading to drop-out, % of patients” value ([2]; 25 mg/d, N = 108, EFS) was “(0.0) %” and the “Nausea leading to drop-out, n (number of patients)” value (shortened to “Nausea leading to drop-out, n”) ([2]; 25 mg/d, N = 108, EFS) was 0. For the same compound, the “Paresthesia leading to drop-out, % of patients” value ([2]; 25 mg/d, N = 108, EFS) was “(0.0) %”, the “Paresthesia leading to drop-out, n (number of patients)” value (“Paresthesia leading to drop-out, n” for short) ([2]; 25 mg/d, N = 108, EFS) was 0 and the “Tinnitus leading to drop-out, % of patients” value ([2]; 25 mg/d, N = 108, EFS) was “(1.9) %”. The “Tinnitus leading to drop-out, n (number of patients)” value (“Tinnitus leading to drop-out, n” for short) ([2]; 25 mg/d, N = 108, EFS) was 2, the “Vertigo leading to drop-out, % of patients” value ([2]; 25 mg/d, N = 108, EFS) was “(0.0) %” and the “Vertigo leading to drop-out, n (number of patients)” value (from here on “Vertigo leading to drop-out, n”) ([2]; 25 mg/d, N = 108, EFS) was 0. The “Visual acuity reduced leading to drop-out, % of patients” value ([2]; 25 mg/d, N = 108, EFS) was “(0.0) %”, the “Visual acuity reduced leading to drop-out, n (number of patients)” value ([2]; 25 mg/d, N = 108, EFS) was 0 and the “Any adverse event leading to drop-out, % of patients” value ([2]; 50 mg/d, N = 107, EFS) was “(21.5) %”. For the same compound, the “Any adverse event leading to drop-out, n” value ([2]; 50 mg/d, N = 107, EFS) was 23, the “Cardiovascular disorder leading to drop-out, % of patients” value ([2]; 50 mg/d, N = 107, EFS) was “(1.9) %” and the “Cardiovascular disorder leading to drop-out, n (number of patients)” value ([2]; 50 mg/d, N = 107, EFS) was 2. The “Depression leading to drop-out, % of patients” value ([2]; 50 mg/d, N = 107, EFS) was “(1.9) %”, the “Depression leading to drop-out, n” value ([2]; 50 mg/d, N = 107, EFS) was 2 and the “Dizziness leading to drop-out, % of patients” value ([2]; 50 mg/d, N = 107, EFS) was “(5.6) %”. The “Dizziness leading to drop-out, n” value ([2]; 50 mg/d, N = 107, EFS) was 6, the “Fatigue leading to drop-out, % of patients” value ([2]; 50 mg/d, N = 107, EFS) was “(1.9) %” and the “Fatigue leading to drop-out, n” value ([2]; 50 mg/d, N = 107, EFS) was 2. The “Headache leading to drop-out, % of patients” value ([2]; 50 mg/d, N = 107, EFS) was “(0.9) %”, the “Headache leading to drop-out, n” value ([2]; 50 mg/d, N = 107, EFS) was 1 and the “Hyperhidrosis leading to drop-out, % of patients” value ([2]; 50 mg/d, N = 107, EFS) was “(0.0) %”. For the same compound, the “Hyperhidrosis leading to drop-out, n” value ([2]; 50 mg/d, N = 107, EFS) was 0, the “Nausea leading to drop-out, % of patients” value ([2]; 50 mg/d, N = 107, EFS) was “(1.9) %” and the “Nausea leading to drop-out, n” value ([2]; 50 mg/d, N = 107, EFS) was 2. For the same compound, the “Paresthesia leading to drop-out, % of patients” value ([2]; 50 mg/d, N = 107, EFS) was “(1.9) %”, the “Paresthesia leading to drop-out, n” value ([2]; 50 mg/d, N = 107, EFS) was 2 and the “Tinnitus leading to drop-out, % of patients” value ([2]; 50 mg/d, N = 107, EFS) was “(0.0) %”. For the same compound, the “Tinnitus leading to drop-out, n” value ([2]; 50 mg/d, N = 107, EFS) was 0, the “Vertigo leading to drop-out, % of patients” value ([2]; 50 mg/d, N = 107, EFS) was “(3.7) %” and the “Vertigo leading to drop-out, n” value ([2]; 50 mg/d, N = 107, EFS) was 4. The “Visual acuity reduced leading to drop-out, % of patients” value ([2]; 50 mg/d, N = 107, EFS) was “(0.0) %”, the “Visual acuity reduced leading to drop-out, n (number of patients)” value ([2]; 50 mg/d, N = 107, EFS) was 0 and the “Any adverse event leading to drop-out, % of patients” value ([2]; 75 mg/d, N = 102, EFS) was “(28.4) %”. For the same compound, the “Any adverse event leading to drop-out, n” value ([2]; 75 mg/d, N = 102, EFS) was 29, the “Cardiovascular disorder leading to drop-out, % of patients” value ([2]; 75 mg/d, N = 102, EFS) was “(0.0) %” and the “Cardiovascular disorder leading to drop-out, n (number of patients)” value ([2]; 75 mg/d, N = 102, EFS) was 0. For the same compound, the “Depression leading to drop-out, % of patients” value ([2]; 75 mg/d, N = 102, EFS) was “(0.0) %”, the “Depression leading to drop-out, n” value ([2]; 75 mg/d, N = 102, EFS) was 0 and the “Dizziness leading to drop-out, % of patients” value ([2]; 75 mg/d, N = 102, EFS) was “(14.7) %”. The “Dizziness leading to drop-out, n” value ([2]; 75 mg/d, N = 102, EFS) was 15, the “Fatigue leading to drop-out, % of patients” value ([2]; 75 mg/d, N = 102, EFS) was “(2.0) %” and the “Fatigue leading to drop-out, n” value ([2]; 75 mg/d, N = 102, EFS) was 2. The “Headache leading to drop-out, % of patients” value ([2]; 75 mg/d, N = 102, EFS) was “(2.0) %”, the “Headache leading to drop-out, n” value ([2]; 75 mg/d, N = 102, EFS) was 2 and the “Hyperhidrosis leading to drop-out, % of patients” value ([2]; 75 mg/d, N = 102, EFS) was “(2.0) %”. For the same compound, the “Hyperhidrosis leading to drop-out, n” value ([2]; 75 mg/d, N = 102, EFS) was 2, the “Nausea leading to drop-out, % of patients” value ([2]; 75 mg/d, N = 102, EFS) was “(2.0) %” and the “Nausea leading to drop-out, n” value ([2]; 75 mg/d, N = 102, EFS) was 2. For the same compound, the “Paresthesia leading to drop-out, % of patients” value ([2]; 75 mg/d, N = 102, EFS) was “(0.0) %”, the “Paresthesia leading to drop-out, n” value ([2]; 75 mg/d, N = 102, EFS) was 0 and the “Tinnitus leading to drop-out, % of patients” value ([2]; 75 mg/d, N = 102, EFS) was “(1.0) %”. For the same compound, the “Tinnitus leading to drop-out, n” value ([2]; 75 mg/d, N = 102, EFS) was 1, the “Vertigo leading to drop-out, % of patients” value ([2]; 75 mg/d, N = 102, EFS) was “(2.9) %” and the “Vertigo leading to drop-out, n” value ([2]; 75 mg/d, N = 102, EFS) was 3. The “Visual acuity reduced leading to drop-out, % of patients” value ([2]; 75 mg/d, N = 102, EFS) was “(2.0) %”, the “Visual acuity reduced leading to drop-out, n (number of patients)” value ([2]; 75 mg/d, N = 102, EFS) was 2 and the “activity at 5-HT3 receptors” value [3] was “exhibit activity”. For the same compound, the “activity at the α 9/α 10 nicotinic receptors” value [4] was “exhibit activity”.
